Test results from patent US20150045410A1, “METHOD OF REGULATING CFTR EXPRESSION AND PROCESSING” (University of Iowa Research Foundation, priority 2012, published 2015).

Target: T1, CFTR-ΔF508 (Homo sapiens, UniProt P13569, DEL508-508)
T1 construct: expressed in transfected cells
Test: Cell surface ELISA (anti-HA) in HeLa cells stably expressing HA-tagged CFTR-ΔF508
Type: cell-based
Conditions: for mutant CFTR at the cell surface (ELISA): HeLa cells, CFTR-ΔF508-3HA under CMV promoter, oligonucleotide transfection, 6, 12, 24 hrs; for surface display of ΔF508-CFTR (live cell-surface ELISA): HeLa-ΔF508-CFTR-HA cells treated daily with drugs, 72 hr post-treatment, vs DMSO (FIG. 28, 29)

T1 sequence (P13569 with tags, fused parts or gaps DEL508-508): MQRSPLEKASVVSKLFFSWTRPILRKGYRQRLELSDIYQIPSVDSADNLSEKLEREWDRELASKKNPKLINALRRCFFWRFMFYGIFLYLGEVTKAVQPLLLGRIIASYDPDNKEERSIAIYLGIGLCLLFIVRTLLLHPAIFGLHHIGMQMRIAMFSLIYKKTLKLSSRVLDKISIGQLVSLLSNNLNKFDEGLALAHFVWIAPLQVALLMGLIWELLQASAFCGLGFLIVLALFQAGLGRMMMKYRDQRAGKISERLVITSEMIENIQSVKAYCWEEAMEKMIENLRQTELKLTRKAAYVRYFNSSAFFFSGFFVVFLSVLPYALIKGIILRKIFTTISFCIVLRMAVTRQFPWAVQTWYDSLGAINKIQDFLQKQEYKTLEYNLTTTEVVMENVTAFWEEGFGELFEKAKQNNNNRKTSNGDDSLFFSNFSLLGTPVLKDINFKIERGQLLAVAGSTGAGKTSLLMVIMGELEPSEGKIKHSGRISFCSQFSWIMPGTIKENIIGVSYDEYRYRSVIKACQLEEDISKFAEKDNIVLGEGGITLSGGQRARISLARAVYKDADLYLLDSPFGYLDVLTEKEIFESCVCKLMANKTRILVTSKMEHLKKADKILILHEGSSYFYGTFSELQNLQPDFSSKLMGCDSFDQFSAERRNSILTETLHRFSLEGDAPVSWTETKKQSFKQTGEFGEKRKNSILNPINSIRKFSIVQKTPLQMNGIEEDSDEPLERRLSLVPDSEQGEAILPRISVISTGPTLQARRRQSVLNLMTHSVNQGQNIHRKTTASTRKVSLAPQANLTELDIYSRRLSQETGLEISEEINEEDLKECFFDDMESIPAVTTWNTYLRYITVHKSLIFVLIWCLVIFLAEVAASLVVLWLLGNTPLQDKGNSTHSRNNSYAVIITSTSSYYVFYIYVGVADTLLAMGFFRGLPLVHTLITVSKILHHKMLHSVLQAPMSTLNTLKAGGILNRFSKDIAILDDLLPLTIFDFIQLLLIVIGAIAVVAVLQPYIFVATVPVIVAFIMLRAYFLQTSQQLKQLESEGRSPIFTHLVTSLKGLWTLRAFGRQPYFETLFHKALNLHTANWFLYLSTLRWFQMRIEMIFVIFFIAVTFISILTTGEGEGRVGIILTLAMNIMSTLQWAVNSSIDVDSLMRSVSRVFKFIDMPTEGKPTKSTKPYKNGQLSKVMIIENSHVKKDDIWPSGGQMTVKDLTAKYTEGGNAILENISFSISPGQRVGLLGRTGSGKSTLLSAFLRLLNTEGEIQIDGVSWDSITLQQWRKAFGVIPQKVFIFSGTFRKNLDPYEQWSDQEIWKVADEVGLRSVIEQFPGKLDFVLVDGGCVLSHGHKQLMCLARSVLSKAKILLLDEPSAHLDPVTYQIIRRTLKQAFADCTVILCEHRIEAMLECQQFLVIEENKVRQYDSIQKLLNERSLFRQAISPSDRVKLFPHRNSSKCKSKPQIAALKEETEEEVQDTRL

Compound: SIN3A DsiRNA: Dicer-substrate siRNA against SIN3A, sense SEQ ID NO: 6, antisense SEQ ID NO: 7 (sense GCGAUACAUGAAUUCAGAUACUACC; antisense GGUAGUAUCUGAAUUCAUGUAUCGCUC; chemistry not given here)
- mutant CFTR at the cell surface (ELISA): mutant CFTR reached the cell surface

Compound: COc1cc2ncnc(Nc3cccc(Cl)c3)c2cc1OC [Tyrophostin (AG-1478), N-(3-chlorophenyl)-6,7-dimethoxy-4-quinazolinamine]
- surface display of ΔF508-CFTR (live cell-surface ELISA): increased

Compound: miR-138 mimic: synthetic modified RNA duplex, sense SEQ ID NO: 4, antisense SEQ ID NO: 5, showing miR-138-like activity
- mutant CFTR at the cell surface (ELISA): mutant CFTR reached the cell surface

Compound: CN1CCC(=C2c3ccccc3CCc3sccc32)CC1 [Pizotifen, 4-(1-methyl-4-piperidylidine)-9, 1 0-dihydro-4H-benzo-[4,5]cyclohepta[1,2]-thiophene]
- surface display of ΔF508-CFTR (live cell-surface ELISA): increased

Compound: O[C@](CCN1CCCCC1)(c1ccccc1)[C@H]1CC2C=CC1C2 (mixture of isomers) [Biperiden]
- surface display of ΔF508-CFTR (live cell-surface ELISA): increased
